Key:
[1] = system: P356R α-mannosidase; experiment: Lysed cell α-mannosidase activity in α-mannosidosis fibroblasts; assay type: cell-based, human
Description: Lysosomal α-mannosidase is a broad specificity exoglycosidase involved in the ordered degradation of glycoproteins. Michalski et al, Biochim Biophys Acta-Mol Basis Dis 1455: 69-84, 1999. The P356R mutation in the α-mannosidase enzyme appears to compromise folding and trafficking, leading to very low lysosomal α-mannosidase activity and severe α-mannosidosis. […] The activity of cells harboring P356R α-mannosidase is approximately 18% of that of WT α-mannosidase, under the assay conditions employed. […] . FIG. 21A). […] .

[2] = system: R245H/E447K SGSH; assay type: cell-based, human; conditions: verapamil, 5-day treatment

COc1ccc(CCN(C)CCCC(C#N)(c2ccc(OC)c(OC)c2)C(C)C)cc1OC (stereo not drawn) [verapamil]
effect on α-mannosidase activity ([1]; brief exposure (1 day)): did not increase α-mannosidase activity significantly | P356R α-mannosidase activity as % of WT α-mannosidase ([1]; verapamil 50 μM, 4 days): ≈ 56% | effect on R245H/E447K sulfamidase activity [2]: did not change the sulfamidase activity significantly
